From patent US10131652B2, “Pyrimidinyloxy benzene derivatives as herbicides” (E. I. DU PONT DE NEMOURS AND COMPANY, priority 2014, dated 2018)

What was measured:
Assay in all cases: Test F pre-/postemergence plant response
Assay type in all cases: in vivo
[1] = system: Italian ryegrass (Lolium multiflorum); settings: Lolium multiflorum, pre-emergence, Preemergence, scale 0 to 100, read-out: Plant response rating, Ryegrass, Italian
Text: (§1) Seeds of plant species selected from corn (Zea mays), soybean (Glycine max), velvetleaf (Abutilon theophrasti), lambsquarters (Chenopodium album), wild poinsettia (Euphorbia heterophylla), palmer pigweed (Amaranthus palmeri), waterhemp (common waterhemp, Amaranthus rudis), surinam grass (Brachiaria decumbens), large (Lg) crabgrass (Digitaria sanguinalis), Brazilian crabgrass (Digitaria horizontalis), fall panicum (Panicum dichotomiflorum), giant foxtail (Setaria faberii), green foxtail (Setaria viridis), goosegrass (Eleusine indica), johnsongrass (Sorghum halepense), ragweed (common ragweed, Ambrosia elatior), barnyardgrass (Echinochloa crus-galli), sandbur (southern sandbur, Cenchrus echinatus), arrowleaf sida (Sida rhombifolia), Italian ryegrass (Lolium multiflorum), dayflower (Virginia (VA) dayflower, Commelina virginica), field bindweed (Convolvulus arvensis), cocklebur (common cocklebur, Xanthium strumarium), momingglory (Ipomoea coccinea), nightshade (eastern black nightshade, Solanum ptycanthum), kochia (Kochia scoparia), yellow nutsedge (Cyperus esculentus), and hairy beggarticks (Bidens pilosa), were planted into a silt loam soil and treated preemergence with test chemicals formulated in a non-phytotoxic solvent mixture which included a surfactant.
(§2) At the same time, plants from these crop and weed species and also waterhemp_RES1, (ALS & Triazine resistant common waterhemp, Amaranthus rudis), and waterhemp_RES2, (ALS & HPPD resistant common waterhemp, Amaranthus rudis) were treated with postemergence applications of test chemicals formulated in the same manner. Plants ranged in height from 2 to 18 cm for postemergence treatments (1- to 4-leaf stage).
(§3) Treated plants and controls were maintained in a greenhouse for 14 to 21 days, after which time all species were compared to controls and visually evaluated. Plant response ratings, summarized in Table F, are based on a scale of 0 to 100 where 0 is no effect and 100 is complete control. A dash (-) response means no test result.

[2] = system: field bindweed (Convolvulus arvensis); settings: Convolvulus arvensis, pre-emergence, scale 0 to 100, read-out: Plant response rating, Field Bindweed
Text: as §1, §2, §3

[3] = system: large (Lg) crabgrass (Digitaria sanguinalis); settings: Digitaria sanguinalis, pre-emergence, scale 0 to 100, read-out: Plant response rating, Crabgrass, Large
Text: as §1, §2, §3

[4] = system: lambsquarters (Chenopodium album); settings: Chenopodium album, pre-emergence, Preemergence, scale 0 to 100, read-out: Plant response rating, Lambsquarters
Text: as §1, §2, §3

[5] = system: waterhemp (common waterhemp, Amaranthus rudis); settings: Amaranthus tuberculatus, pre-emergence, scale 0 to 100, read-out: Plant response rating, Waterhemp
Text: as §1, §2, §3

[6] = system: kochia (Kochia scoparia); settings: Bassia scoparia, pre-emergence, Preemergence, scale 0 to 100, read-out: Plant response rating, Kochia
Text: as §1, §2, §3

[7] = system: johnsongrass (Sorghum halepense); settings: Sorghum halepense, pre-emergence, scale 0 to 100, read-out: Plant response rating, Johnsongrass
Text: as §1, §2, §3

[8] = system: ragweed (common ragweed, Ambrosia elatior); settings: Ambrosia artemisiifolia, pre-emergence, scale 0 to 100, read-out: Plant response rating, Ragweed
Text: as §1, §2, §3

[9] = system: green foxtail (Setaria viridis); settings: Setaria viridis, pre-emergence, Preemergence, scale 0 to 100, read-out: Plant response rating, Foxtail, Green
Text: as §1, §2, §3

[10] = system: soybean (Glycine max); settings: Glycine max, pre-emergence, scale 0 to 100, read-out: Plant response rating, Soybean
Text: as §1, §2, §3

[11] = system: morningglory (Ipomoea coccinea); settings: Ipomoea, pre-emergence, scale 0 to 100, read-out: Plant response rating, Morningglory
Text: as §1, §2, §3

[12] = system: yellow nutsedge (Cyperus esculentus); settings: Cyperus, pre-emergence, scale 0 to 100, read-out: Plant response rating, Nutsedge, Yellow
Text: as §1, §2, §3

[13] = system: dayflower (Virginia (VA) dayflower, Commelina virginica); settings: Commelina virginica, pre-emergence, scale 0 to 100, read-out: Plant response rating, Dayflower, VA
Text: as §1, §2, §3

[14] = system: wild poinsettia (Euphorbia heterophylla); settings: Euphorbia heterophylla, pre-emergence, scale 0 to 100, read-out: Plant response rating, Poinsettia, Wild
Text: as §1, §2, §3

[15] = system: surinam grass (Brachiaria decumbens); settings: Urochloa decumbens, pre-emergence, scale 0 to 100, read-out: Plant response rating, Surinam Grass
Text: as §1, §2, §3

[16] = system: giant foxtail (Setaria faberii); settings: Setaria faberi, pre-emergence, scale 0 to 100, read-out: Plant response rating, Foxtail, Giant
Text: as §1, §2, §3

[17] = system: barnyardgrass (Echinochloa crus-galli); settings: Echinochloa crus-galli, pre-emergence, scale 0 to 100, read-out: Plant response rating, Barnyardgrass
Text: as §1, §2, §3

Fc1cccc(Oc2ncc(Cl)cn2)c1-c1cc(C(F)(F)F)on1 [Compound 168, 5-chloro-2-[2-[5-(trifluoromethyl)-3-isoxazolyl]-3-fluorophenoxy]pyrimidine] showed a pest or weed control at 16 g/ha ([1]; 16 g ai/ha) of 15%, a pest or weed control at 31 g/ha ([1]; 31 g ai/ha) of 30% and a pest or weed control at 125 g/ha ([1]; 125 g ai/ha) of 70%. The pest or weed control at 62 g/ha [1] was 65%, the pest or weed control at 16 g/ha ([2]; 16 g ai/ha Preemergence) was 40% and the pest or weed control at 31 g/ha ([2]; 31 g ai/ha Preemergence) was 60%. It also gave a pest or weed control at 62 g/ha ([2]; 62 g ai/ha Preemergence) of 50%, a pest or weed control at 125 g/ha ([2]; 125 g ai/ha Preemergence) of 70% and a pest or weed control at 16 g/ha ([3]; 16 g ai/ha Preemergence) of 65%. It also gave a pest or weed control at 31 g/ha ([3]; 31 g ai/ha Preemergence) of 95%, a pest or weed control at 62 g/ha ([3]; 62 g ai/ha Preemergence) of 98% and a pest or weed control at 125 g/ha ([3]; 125 g ai/ha Preemergence) of 100%. The pest or weed control at 16 g/ha ([4]; 16 g ai/ha) was 100%, the pest or weed control at 31 g/ha ([4]; 31 g ai/ha) was 100% and the pest or weed control at 125 g/ha ([4]; 125 g ai/ha) was 100%. The pest or weed control at 62 g/ha [4] was 100%, the pest or weed control at 16 g/ha ([5]; 16 g ai/ha Preemergence) was 100% and the pest or weed control at 31 g/ha ([5]; 31 g ai/ha Preemergence) was 100%. It also gave a pest or weed control at 125 g/ha ([5]; 125 g ai/ha Preemergence) of 100%, a pest or weed control at 62 g/ha ([5]; Preemergence) of 100% and a pest or weed control at 16 g/ha ([6]; 16 g ai/ha) of 95%. It also gave a pest or weed control at 31 g/ha ([6]; 31 g ai/ha) of 100%, a pest or weed control at 125 g/ha ([6]; 125 g ai/ha) of 100% and a pest or weed control at 62 g/ha [6] of 100%. It also gave a pest or weed control at 16 g/ha ([7]; 16 g ai/ha Preemergence) of 0%, a pest or weed control at 31 g/ha ([7]; 31 g ai/ha Preemergence) of 30% and a pest or weed control at 125 g/ha ([7]; 125 g ai/ha Preemergence) of 100%. For the same compound, the pest or weed control at 62 g/ha ([7]; Preemergence) was 35%, the pest or weed control at 16 g/ha ([8]; 16 g ai/ha Preemergence) was 10% and the pest or weed control at 31 g/ha ([8]; 31 g ai/ha Preemergence) was 35%. It also gave a pest or weed control at 125 g/ha ([8]; 125 g ai/ha Preemergence) of 98%, a pest or weed control at 62 g/ha ([8]; Preemergence) of 65% and a pest or weed control at 16 g/ha ([9]; 16 g ai/ha) of 70%. For the same compound, the pest or weed control at 31 g/ha ([9]; 31 g ai/ha) was 100%, the pest or weed control at 125 g/ha ([9]; 125 g ai/ha) was 100% and the pest or weed control at 62 g/ha [9] was 100%. It also gave a plant injury at 16 g/ha ([10]; 16 g ai/ha Preemergence) of 0%, a plant injury at 31 g/ha ([10]; 31 g ai/ha Preemergence) of 0% and a plant injury at 125 g/ha ([10]; 125 g ai/ha Preemergence) of 40%. It also gave a plant injury at 62 g/ha ([10]; Preemergence) of 20%, a pest or weed control at 16 g/ha ([11]; 16 g ai/ha Preemergence) of 0% and a pest or weed control at 31 g/ha ([11]; 31 g ai/ha Preemergence) of 0%. The pest or weed control at 125 g/ha ([11]; 125 g ai/ha Preemergence) was 75%, the pest or weed control at 62 g/ha ([11]; Preemergence) was 15% and the pest or weed control at 16 g/ha ([12]; 16 g ai/ha Preemergence) was 0%. For the same compound, the pest or weed control at 31 g/ha ([12]; 31 g ai/ha Preemergence) was 0%, the pest or weed control at 125 g/ha ([12]; 125 g ai/ha Preemergence) was 20% and the pest or weed control at 62 g/ha ([12]; Preemergence) was 0%. It also gave a pest or weed control at 16 g/ha ([13]; 16 g ai/ha Preemergence) of 5%, a pest or weed control at 31 g/ha ([13]; 31 g ai/ha Preemergence) of 10% and a pest or weed control at 62 g/ha ([13]; 62 g ai/ha Preemergence) of 70%. It also gave a pest or weed control at 125 g/ha ([13]; 125 g ai/ha Preemergence) of 90%, a pest or weed control at 16 g/ha ([14]; 16 g ai/ha Preemergence) of 0% and a pest or weed control at 31 g/ha ([14]; 31 g ai/ha Preemergence) of 0%. It also gave a pest or weed control at 125 g/ha ([14]; 125 g ai/ha Preemergence) of 90%, a pest or weed control at 62 g/ha ([14]; Preemergence) of 50% and a pest or weed control at 16 g/ha ([15]; 16 g ai/ha Preemergence) of 50%. For the same compound, the pest or weed control at 31 g/ha ([15]; 31 g ai/ha Preemergence) was 65%, the pest or weed control at 125 g/ha ([15]; 125 g ai/ha Preemergence) was 100% and the pest or weed control at 62 g/ha ([15]; Preemergence) was 70%. It also gave a pest or weed control at 16 g/ha ([16]; 16 g ai/ha Preemergence) of 65%, a pest or weed control at 31 g/ha ([16]; 31 g ai/ha Preemergence) of 98% and a pest or weed control at 62 g/ha ([16]; 62 g ai/ha Preemergence) of 100%. For the same compound, the pest or weed control at 125 g/ha ([16]; 125 g ai/ha Preemergence) was 100%, the pest or weed control at 16 g/ha ([17]; 16 g ai/ha Preemergence) was 0% and the pest or weed control at 31 g/ha ([17]; 31 g ai/ha Preemergence) was 25%. For the same compound, the pest or weed control at 62 g/ha ([17]; 62 g ai/ha Preemergence) was 80% and the pest or weed control at 125 g/ha ([17]; 125 g ai/ha Preemergence) was 100%.
